The term IC50 denotes the concentration that inhibits the measured activity by half. A lower IC50 goes with higher potency. Usually inhibition stands for the drop in the measured response relative to a control, in per cent. The low end stands for little suppression, the high end for strong suppression.

For one assay, the target named is SARS-CoV-2 Main Protease (SARS-CoV-2) (UniProt P0DTD1).
Details: not given
In turn, `COc1cccc2[nH]c(=O)cc(C(=O)N3CCN(c4cccc(Cl)c4)CC3)c12` came in with an IC50 of 1.84 µM.
`COc1ccc2c(NC(=O)Cc3cccc(Cl)c3)[nH]nc2c1` had an IC50 of 52 µM.
Same read-out and setting: to `O=C(COc1cccc(Cl)c1)Nc1cncc2ccccc12` belongs 6.02 µM.
Still for that read-out and setting: to `O=C(Nc1cccnc1)[C@@H](c1ccccc1)N1Cc2ccccc2C1=O` (stereo in doubt) belongs 59.6 µM; to `O=C(Cc1cccc(Cl)c1)Nc1cnccc1C1CC1`, 7.4 µM.
`CC(C)(C)N1C=CN(C(C)(C)C)[CH]1[Au][Cl]` yielded an IC50 of 0.117 µM.
Regarding `Cc1ccncc1NC(=O)Cc1cc(Cl)cc(-c2ccc(C3CC3(F)F)cc2)c1` (stereo not given), the IC50 is 2.83 µM.
Still for that read-out and setting: to `Cc1ccncc1NC(=O)C(CO)c1cccc(Cl)c1` (stereo not given) belongs 47.3 µM; to `CCCCOc1ccc(Cl)cc1CC(=O)Nc1cnccc1C`, 15.7 µM; to `O=C(Nn1nnc2ccccc21)C(Cc1cccc(Cl)c1)c1ccc(N2CCCCC2=O)cc1` (stereo not given), 81.8 µM.
`Cc1ccncc1N1CCC(c2cccc(Cl)c2)S1(=O)=O` (stereo not given) yielded an IC50 of 68.2 µM.
Still for that read-out and setting: to `O=C(Cn1nnc2ccccc21)N(Cc1ccccc1)c1ccc(N2CCOCC2)cc1` belongs 18.2 µM; to `Cc1cc(C(F)(F)F)nc2c1c(N)nn2C(=O)C1CCOc2ccc(Cl)cc21` (stereo not given), 57.8 µM.
The compound `Cc1c(C(=O)CCl)c2ccccn2c1C(=O)c1ccc(F)cc1` registered an IC50 of 0.706 µM.
The compound `C[C@H]1C[C@@H](C(=O)Nc2cncc3ccccc23)c2cc(Cl)ccc2O1` (stereo in doubt) showed an IC50 of 45.4 µM.
As to `COc1ccc2c(NC(=O)C3CCOc4ccc(Cl)cc43)noc2c1` (stereo not given), the IC50 was 53.4 µM.
The same measure, in the same setting: to `Cc1ccncc1NC(=O)Cc1cc(Cl)cc(S(N)(=O)=O)c1` belongs 13.1 µM; to `O=C(Nc1cc(=O)[nH]c2ccccc12)C1CCOc2ccc(Cl)cc21` (stereo not given), 48 µM; to `O=C(Cc1cccc(Cl)c1)Nc1cncc2c1CCCC2`, 1.84 µM.
As for `COc1ccc2nnn(CC(=O)N(Cc3ccccn3)c3ccc(C4CCNCC4)cc3)c2c1`, the IC50 worked out at 32.2 µM.
`CNC(=O)Nc1ccc(N(Cc2ccsc2)C(=O)Cn2nnc3ccccc32)cc1`: the IC50 was 15.3 µM.
The same measure, in the same setting: to `COc1ccc(N(Cc2cccc(Cl)c2)C(=O)Cn2nnc3ccccc32)cc1` belongs 5.65 µM; to `COc1ccc(Cl)cc1OCCNC(=O)c1cc(=O)[nH]c2cccc(OC)c12`, 0.19 µM; to `Cc1nc(CN2C(=O)C(=O)c3cc(Br)ccc32)cs1`, 18 µM.
On the same count and under the same terms, to `CC(C)CCN1C(=O)C(=O)c2cc(Br)ccc21` belongs 24.3 µM; to `O=C(CCc1cccc(Cl)c1)Nc1cncc2ccccc12`, 19.3 µM.
`O=C(Cn1nnc2ccccc21)N(Cc1cccc(Cl)c1)c1ccc(N2CCOCC2)cc1` showed an IC50 of 3.79 µM.
`CC(C)(C)c1ccc(N(C(=O)c2cnc[nH]2)C(C(=O)NCCc2cccc(F)c2)c2cccnc2)cc1` (stereo not given) came in with an IC50 of 1.05 µM.
As for `Cc1ccncc1NC(=O)Cc1cc(Cl)cc(NS(N)(=O)=O)c1`, the IC50 stood at 14.5 µM.
The same measure, in the same setting: to `O=C(Cc1cccc(Cl)c1)Nc1nnc2ccccn12` belongs 93.9 µM.
For the compound `O=C(Cc1cc(Cl)cc(CC2CC(=O)N2)c1)Nc1cncc2ccccc12` (stereo not given), the IC50 was 4.42 µM.
For the compound `COc1cccc(C2=N/C(=C/c3sccc3C)C(=O)O2)c1`, the IC50 was 5.07 µM.
Same read-out and setting: to `Cc1ccncc1NC(=O)Cc1cc(Cl)cc(NC2CCCC2O)c1` (stereo not given) belongs 38.9 µM; to `Cc1ccncc1NC(=O)Cc1cc(Cl)cc(/C=C(/c2ccccc2)C(F)(F)F)c1`, 15.3 µM; to `CN(C)c1ccc(N(Cc2cccc(Cl)c2)C(=O)Cn2nnc3ccccc32)cc1`, 0.391 µM.
Compound `O=C(Cc1cncc2ccccc12)Nc1cccc(Cl)c1` showed an IC50 of 7.2 µM.
The compound `O=C(Nc1ccccc1)[C@@H](c1ccccc1)N1Cc2ccccc2C1=O` (stereo in doubt) returned an IC50 of 99.8 µM.
Turning to `C[C@@H]1C[C@H](C(=O)Nc2cncc3ccccc23)c2cc(Cl)ccc2O1` (stereo in doubt), the IC50 was 2.66 µM.
Same read-out and setting: to `O=C1C(=O)N(Cc2ccccc2)c2ccc([N+](=O)[O-])cc21` belongs 26.9 µM; to `O=C(Cc1cncc2ccccc12)Nc1cc(Cl)cc(OC2CCC(=O)N2)c1` (stereo not given), 19.4 µM.
`O=C(Cn1nnc2ccccc21)N(Cc1ccsc1)c1ccc(N2CCCCC2)cc1` displayed an IC50 of 6.29 µM.
Same read-out and setting: to `Cc1cc(C(=O)CCl)c(C)n1CC1COc2ccccc2O1` (stereo not given) belongs 4.15 µM; to `O=C(Cc1cc(Cl)cc(Cc2ccn[nH]2)c1)Nc1cncc2ccccc12`, 9.39 µM.
`Cc1cc(C(F)(F)F)nc2n[nH]c(NC(=O)C3CCOc4ccc(Cl)cc43)c12` (stereo not given) showed an IC50 of 98.1 µM.
On to `C[C@@H]1C[C@@H](C(=O)Nc2cncc3ccccc23)c2cc(Cl)ccc2O1` (stereo in doubt), for which the IC50 stood at 0.524 µM.
Same read-out and setting: to `Cc1c(N)cncc1NC(=O)Cc1cccc(Cl)c1` belongs 8.2 µM; to `Cc1ccncc1NC(=O)Cc1cc(Cl)cc(-c2ccc(S(C)(=O)=O)cc2Cl)c1`, 19.5 µM.
In the case of `Cc1cc(C(F)(F)F)nc2n[nH]c(NC(=O)Cc3cccc(Cl)c3)c12`, the IC50 stood at 82 µM.
In the case of `CN(C)c1ccc(N(Cc2ccn[nH]2)C(=O)Cn2nnc3ccccc32)cc1`, the IC50 was 90.8 µM.
The same measure, in the same setting: to `Cc1ccncc1NC(=O)Cc1cc(Cl)cc(CNS(C)(=O)=O)c1` belongs 32.2 µM.
In turn, `C=CC(=O)N(c1ccc(I)cc1)C(C(=O)Nc1ccc(Cl)cc1)c1cncnc1` (stereo not given) registered an IC50 of 2.75 µM.
`O=C(NCC1=[SH]C=CC1)[C@@H](c1ccccc1)N1Cc2ccccc2C1=O` (stereo in doubt) showed an IC50 of 82 µM.
`CN(C)c1ccc(N(Cc2ccccc2)C(=O)Cn2nnc3ccccc32)cc1` came in with an IC50 of 1.57 µM.
For `O=C(c1cc(=O)[nH]c2ccccc12)N1CCN(c2cccc(Cl)c2)C(=O)C1`, the IC50 stood at 9.61 µM.
In the case of `COc1ccc2c(N)nn(C(=O)C3CCOc4ccc(Cl)cc43)c2c1` (stereo not given), the IC50 amounted to 62.1 µM.
`C=CC(=O)N(c1cc(C(C)(C)C)on1)C(C(=O)NCCc1cccc(F)c1)c1cncc(C#N)c1` (stereo not given) showed an IC50 of 10.6 µM.
Same read-out and setting: to `N#Cc1ncn(CC(=O)Nc2ccc(Br)cc2Cl)n1` belongs 2.87 µM; to `CCN(c1ccccc1)S(=O)(=O)c1ccc(OC)c(NC(=O)CCl)c1`, 6.96 µM.
For `O=C(Nc1cncc2ccccc12)[C@H]1COc2ccc(Cl)cc2C1` (stereo in doubt), the IC50 was 37.7 µM.
The same measure, in the same setting: to `O=C(Nc1cncc2ccccc12)C1COc2c(Cl)cccc21` (stereo not given) belongs 5.36 µM.
Compound `COc1cc(Cl)cc2c1OCC[C@@H]2C(=O)Nc1cncc2ccccc12` (stereo in doubt) yielded an IC50 of 10.2 µM.
For `Nc1nn(C(=O)Cc2cccc(Cl)c2)c2cccc(F)c12`, the IC50 turned out to be 52.6 µM.
In turn, `CC(C)(C)c1ccc(N(C(=O)c2cn[nH]c2)C(C(=O)NCCc2cccc(F)c2)c2cccnc2)cc1` (stereo not given) gave an IC50 of 4.84 µM.
Still for that read-out and setting: to `Cc1ccncc1NC(=O)Cc1cc(Cl)cc(NC2CC2C(F)(F)F)c1` (stereo not given) belongs 19.7 µM; to `O=C(Nc1c[nH]c(=O)c2ccccc12)C1CCOc2ccc(Cl)cc21` (stereo not given), 83.7 µM; to `O=C(Cc1cccc(Cl)c1)Nc1[nH]nc2cc(F)ccc12`, 91.5 µM.
In the case of `Nc1nn(C(=O)Cc2cccc(Cl)c2)c2ccc(F)cc12`, the IC50 was 94.2 µM.

Still in this assay, the particulars now being: 20.0 µM.
`CC(=O)Nc1cccc(N2CCCC2=O)c1` had an inhibition of 11.4%.

Staying with this assay, now noted: 50.0 µM.
On to `Cc1cc(C(=O)CCl)c(C)n1NC(=O)c1n[nH]c(=O)c2ccccc12`, for which the inhibition stood at 42.3%.
Same read-out and setting: to `C[N+]1=C2C=C(N/C=C/c3ccc(O)cc3)C(=O)c3[nH]cc(c32)CC1` belongs 8.91%; to `CC(C)(C)N1C=CN(C(C)(C)C)[CH]1[Au][Cl]`, 100%; to `C[C@H]1O[C@H](C)C2Oc3cc(O)c4c(=O)c5c6c7c8c(cc(=O)c9c(O)c1c2c(c3c47)c98)O[C@@H]6[C@@H](C)O[C@@H]5C` (stereo in doubt), 0%.
For the compound `OC[C@H]1O[C@H]([S][Au])[C@H](O)[C@@H](O)[C@@H]1O` (stereo in doubt), the inhibition amounted to 83.1%.
`CC12CCCC(O1)c1c(cc3c(c1O)C(=O)c1c(O)cc(O)cc1C3=O)O2` (stereo not given) registered an inhibition of 26.4%.
Compound `C[N+]1=C2C=C(NCCc3ccc(O)cc3)C(=O)c3[nH]cc(c32)CC1` displayed an inhibition of 2.74%.
The compound `Cc1c(C(=O)CCl)c2ccccn2c1C(=O)c1ccc(F)cc1` yielded an inhibition of 94.7%.
The compound `Cc1ccncc1NC(=O)Cc1cc(Cl)cc(S(N)(=O)=O)c1` registered an inhibition of 64%.
The compound `COc1ccc2nnn(CC(=O)N(Cc3ccccn3)c3ccc(C4CCNCC4)cc3)c2c1` had an inhibition of 94.8%.
Still for that read-out and setting: to `CC(=O)Nc1cccc(N2CCCC2=O)c1` belongs 22.7%; to `CC(C)(C)c1ccc(N(C(=O)c2cnc[nH]2)C(C(=O)NCCc2cccc(F)c2)c2cccnc2)cc1` (stereo not given), 100%.
In turn, `Cc1ccncc1NC(=O)Cc1cc(Cl)cc(NS(N)(=O)=O)c1` displayed an inhibition of 87.9%.
On to `COc1cccc(C2=N/C(=C/c3sccc3C)C(=O)O2)c1`, for which the inhibition came to 77.6%.
Compound `Cc1cc(O)c2c3c(ccc2c1)C(=O)c1c(O)cccc1C3=O` gave an inhibition of 5%.
`C/C=C1\C(C2(C)CCCC(C)(C)C2)=CCC2C1[C@@H](OC(C)=O)O[C@H]2OC(C)=O` (stereo in doubt) came in with an inhibition of 0%.
As to `O=C(Nc1cncc2ccccc12)C1CCOc2ccc(Br)cc21` (stereo not given), the inhibition came to 90.6%.
The same measure, in the same setting: to `Cc1ccncc1NC(=O)Cc1cc(Cl)cc(NC2CCCC2O)c1` (stereo not given) belongs 61.5%; to `Cc1ccncc1NC(=O)Cc1cc(Cl)cc(NS(C)(=O)=O)c1`, 54.6%.
The same measure, in the same setting: to `CC(C)C1=C(O)C(=O)C2=C(CC[C@H]3C(C)(C)CCC[C@]23C)C1=O` (stereo in doubt) belongs 10.2%; to `Cc1cc(C(=O)CCl)c(C)n1CC1COc2ccccc2O1` (stereo not given), 82.2%; to `N#CC(C(=O)Nc1ccccc1)C(=O)c1cccs1` (stereo not given), 0%.
As for `O=C(Cc1cccc(Cl)c1)N[C@H]1CCNC1=O` (stereo in doubt), the inhibition was determined as 0%.
Consider `CS(=O)(=O)Nc1cccc(C2=NN(C(=O)CCl)C(c3ccccc3)C2)c1` (stereo not given), for which the inhibition turned out to be 57.6%.
In turn, `Cc1oncc1C(=O)Nc1ccc(C(F)(F)F)cc1` had an inhibition of 0%.
As for `C=C1CCC[C@H]2[C@](C)(CC3=C(O)C(=O)C=C(OC)C3=O)[C@@H](C)CC[C@]12C` (stereo in doubt), the inhibition was 2.35%.
`COc1ccc(OCc2ccccc2)cc1-c1cc(=O)c2ccccc2o1` showed an inhibition of 7.52%.
Turning to `COc1ccc2c(=O)cc(-c3ccc(OCc4ccccc4)cc3)oc2c1`, the inhibition amounted to 10.7%.
Still for that read-out and setting: to `CCN(c1ccccc1)S(=O)(=O)c1ccc(OC)c(NC(=O)CCl)c1` belongs 61.2%; to `Cc1ccncc1NC(=O)Cc1cc(Cl)cc(OCc2n[nH]c3ccccc23)c1`, 9.6%; to `CC(C)(C)c1ccc(N(C(=O)c2cn[nH]c2)C(C(=O)NCCc2cccc(F)c2)c2cccnc2)cc1` (stereo not given), 100%.
In turn, `O=c1cc(-c2ccc(OCc3ccccc3)cc2)oc2ccccc12` showed an inhibition of 35.9%.
